# Test results as given in paper PMC11423303, “Rational Design of Dual-Domain Binding Inhibitors for N-Acetylgalactosamine Transferase 2 with Improved Selectivity over the T1 and T3 Isoforms” (JACS Au, 2024).
# Where two headings read alike, the source gives them in different places. Residues, ends and D or L forms follow the SMILES beside them. *: point of attachment. αGalNAc = CC(=O)N[C@@H]1[C@@H](O)[C@@H](O)[C@@H](CO)O[C@@H]1*; X2 = c1ccc2nc(C*)ccc2c1; X1 = c1csc(C*)c1
# Experiments:
# [1] = biological target: T1, GalNAc-T2 (Homo sapiens, UniProt Q10471); assay: Radiometric GalNAc-T2 inhibition assay with labeled UDP-GalNAc donor and MUC1a acceptor peptide; assay type: biochemical; conditions: for Relative inhibitory activity against GalNAc-T2: normalized concentration of 500 μM
# T1 construct: made in house; host or cells: Pichia pastoris
# T1 sequence (Q10471 whole entry): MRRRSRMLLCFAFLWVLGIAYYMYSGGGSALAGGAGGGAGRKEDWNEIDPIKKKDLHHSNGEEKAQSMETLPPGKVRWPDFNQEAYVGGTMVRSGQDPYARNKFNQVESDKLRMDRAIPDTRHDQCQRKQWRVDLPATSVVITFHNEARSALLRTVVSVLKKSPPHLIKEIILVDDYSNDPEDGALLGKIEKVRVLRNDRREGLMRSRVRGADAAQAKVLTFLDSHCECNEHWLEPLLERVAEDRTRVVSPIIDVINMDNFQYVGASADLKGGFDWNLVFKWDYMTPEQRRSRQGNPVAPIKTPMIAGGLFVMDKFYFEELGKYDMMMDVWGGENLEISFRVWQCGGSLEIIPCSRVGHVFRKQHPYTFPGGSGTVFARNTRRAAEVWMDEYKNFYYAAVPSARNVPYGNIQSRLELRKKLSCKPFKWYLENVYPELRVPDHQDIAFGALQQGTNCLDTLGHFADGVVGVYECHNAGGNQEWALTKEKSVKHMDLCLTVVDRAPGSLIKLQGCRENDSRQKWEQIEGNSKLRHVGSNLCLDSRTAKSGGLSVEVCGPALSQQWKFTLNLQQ
# Protocol: The glycosylation products were isolated from the radiolabeled donors through chromatographic techniques and analyzed by scintillation counting.
# (§1) 347 4. BIOCHEMICAL STUDIES
# (§2) 348 4.1. Reagents and substrates
# (§3) 349 Stock solutions of inhibitor (5mM) and MUC1a substrate (4mM) were prepared from
# (§4) 350 lyophilized powders. Additional serial dilutions of inhibitor were prepared of 1 mM, 200 µM, 50
# (§5) 351 µM, 10 µM, and 2 µM and the MUC1a substrate of 62.5 µM. Fully N-acetylated UDP-
# (§6) 352 [ 3H]GalNAc was obtained from American Radiolabeled Chemicals Inc (St. Louis, MO) whereas
# (§7) 353 nonlabelled UDP-GalNAc was obtained from Millipore-Sigma (St. Louis, MO). A 0.2 mM stock
# (§8) 354 solution of radiolabeled UDP-GalNAc was prepared by adding UDP-[ 3H]GalNAc to unlabeled
# (§9) 355 UDP-GalNAc to give ~6 x 10^8 DPM/µmole. ScintiVerse BD Cocktail fluid was obtained from
# (§10) 356 Fisher Scientific (Pittsburgh, PA). Liquid scintillation counting was performed on a Beckman
# (§11) 357 LS 6500 Scintillation Counter. BioPureSPN TARGA C18 macro spin columns were obtained
# (§12) 358 from The Nest Group Inc. (Ipswich, MA).
# (§13) 360 4.2. GalNAc-Ts expression
# (§14) 361 Human GalNAc-T1 was a gift of Kelley Moremen (CCRC, University of Georgia) and
# (§15) 362 expressed in HEK293F cells. Human GalNAc-T2, and -T3 were obtained from Ramon
# 363 Hertado-Guerrero (University of Zaragosa, SP) and expressed in Pichia pastoris.
# 366 The glycomimetic inhibitors were optimized using GalNAc-T2 activity assays as previously
# 367 described. The reactions were carried out in a total volume of 50 µl, containing 100 nM
# 369 cpm/nm) as the sugar donor. The designed glycomimetics were tested at a range of
# 371 conducted in 25 mM cacodylate buffer (pH 7.4) with 10 mM MnCl 2 and 0.25% Triton X-100,
# 372 and incubated at 22°C for 30 minutes. Excess UDP-[ 14C]GalNAc was removed from the
# 373 glycosylated peptide using DOWEX 1 chromatography, the product was subsequently
# 374 analyzed through scintillation counting.
# 377 protocol was used except UDP-[ 3H]GalNAc was utilized and the products isolated on Targa
# 378 C18 spin columns as previously described. Final enzyme concentrations were 100 nM for
# 379 GalNAc-T1 and -T3 and 200 nM for GalNAc-T2 while final MUC1a substrate and inhibitor 5
# 380 concentrations were as above. Reactions were incubated at 22°C for 30min for GalNAc-T1
# 381 and -T3 and 3h for GalNAc-T2. After incubation, reactions were quenched with 200µL of 0.5%
# 382 TFA in H 2O and passed through the spin columns. Columns were extensively washed with
# 383 0.1% TFA/H 2O and glycopeptide products eluted with 0.1% TFA in 50/50 acetonitrile/H2O
# 384 followed by 100% acetonitrile. The different eluates were analyzed by scintillation counting on
# 385 a Beckman LS 6500 Scintillation Counter. Relative percent peptide glycosylation was
# 386 calculated from the obtained 3H DPM as described in Ballard et al 2023. Reactions were
# 387 repeated twice for each transferase. After subtracting the no substrate blank, under these
# 390 Percent activity was plotted against the log concentration of inhibitor 19 in µM. […]
# [2] = biological target: T2, GalNAc-T1 (Homo sapiens, UniProt Q10472); assay: Radiometric GalNAc-T1 inhibition assay with UDP-[3H]GalNAc and MUC1a acceptor peptide; assay type: biochemical
# T2 construct: made in house; host or cells: HEK293F cells (gift of Kelley Moremen, CCRC, University of Georgia)
# T2 sequence (Q10472 1-559): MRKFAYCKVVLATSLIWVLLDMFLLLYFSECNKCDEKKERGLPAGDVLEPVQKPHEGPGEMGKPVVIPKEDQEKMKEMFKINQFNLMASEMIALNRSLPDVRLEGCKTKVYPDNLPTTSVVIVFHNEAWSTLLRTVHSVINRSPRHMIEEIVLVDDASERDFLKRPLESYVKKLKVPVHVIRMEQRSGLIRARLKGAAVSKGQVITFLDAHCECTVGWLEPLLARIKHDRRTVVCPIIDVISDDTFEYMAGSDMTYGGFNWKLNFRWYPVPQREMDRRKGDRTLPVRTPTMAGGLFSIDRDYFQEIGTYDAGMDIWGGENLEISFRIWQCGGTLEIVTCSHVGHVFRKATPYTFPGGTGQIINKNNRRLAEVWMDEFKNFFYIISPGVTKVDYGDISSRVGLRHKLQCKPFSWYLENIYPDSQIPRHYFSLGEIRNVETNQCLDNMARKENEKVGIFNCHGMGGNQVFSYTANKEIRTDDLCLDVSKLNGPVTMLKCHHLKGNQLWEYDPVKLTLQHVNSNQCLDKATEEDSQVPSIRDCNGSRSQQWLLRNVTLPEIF
# Protocol: as §1, §2, §3, §4, §5, §6, §7, §8, §9, §10, §11, §12, §13, §14, §15
# (§16) 363 Hertado-Guerrero (University of Zaragosa, SP) and expressed in Pichia pastoris. […]
# 367 described. […]
# (§17) 384 followed by 100% acetonitrile. The different eluates were analyzed by scintillation counting on […]
# (§18) 386 calculated from the obtained 3H DPM as described in Ballard et al 2023. […]
# [3] = biological target: T3, GalNAc-T3 (Homo sapiens, UniProt Q14435); assay: Radiometric GalNAc-T3 inhibition assay with UDP-[3H]GalNAc and MUC1a acceptor peptide; assay type: biochemical
# T3 construct: made in house; host or cells: Pichia pastoris
# T3 sequence (Q14435 1-633): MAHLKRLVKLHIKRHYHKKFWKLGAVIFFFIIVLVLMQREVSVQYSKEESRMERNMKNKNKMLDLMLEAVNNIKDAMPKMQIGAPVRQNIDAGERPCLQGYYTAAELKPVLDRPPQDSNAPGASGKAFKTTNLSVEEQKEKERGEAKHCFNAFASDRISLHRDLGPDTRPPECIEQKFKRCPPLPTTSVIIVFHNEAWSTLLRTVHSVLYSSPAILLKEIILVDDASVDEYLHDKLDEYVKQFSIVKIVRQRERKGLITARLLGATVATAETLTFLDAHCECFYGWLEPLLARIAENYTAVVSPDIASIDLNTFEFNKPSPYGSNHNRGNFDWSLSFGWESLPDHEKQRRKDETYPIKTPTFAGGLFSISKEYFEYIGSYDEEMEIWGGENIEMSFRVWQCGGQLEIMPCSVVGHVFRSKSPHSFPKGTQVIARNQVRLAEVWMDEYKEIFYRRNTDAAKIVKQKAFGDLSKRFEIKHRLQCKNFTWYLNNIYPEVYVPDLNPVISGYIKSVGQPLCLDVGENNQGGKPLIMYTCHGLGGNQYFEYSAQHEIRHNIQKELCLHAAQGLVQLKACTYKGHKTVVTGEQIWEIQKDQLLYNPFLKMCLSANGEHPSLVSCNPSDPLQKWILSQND
# Protocol: as §1, §2, §3, §4, §5, §6, §7, §8, §9, §10, §11, §12, §13, §14, §15, §16, §17, §18
# [4] = test system: GalNAc-T2; set-up: method as in PMID 28362263; conditions: cited from earlier work
# [5] = test system: GalNAc-T6; set-up: method as in PMID 28362263; conditions: cited from earlier work
# [6] = test system: GalNAc-T3; set-up: method as in PMID 28362263; conditions: cited from earlier work
# [7] = test system: FGF23 levels; set-up: method as in PMID 28362263; conditions: chronic kidney disease treatment; cited from earlier work
# [8] = test system: GalNAc-T2; set-up: method as in Wandall H. H. et al., [16]; conditions: ref Wandall H. H. et al., [16], cited from earlier work
# [9] = test system: GalNAc-T3; set-up: method as in Wandall H. H. et al., [16]; conditions: ref Wandall H. H. et al., [16], cited from earlier work
# [10] = test system: GalNAc-T1; set-up: method as in Wandall H. H. et al., [16]; conditions: ref Wandall H. H. et al., [16], cited from earlier work
# [11] = test system: GalNAc-T2; set-up: method as in PMID 29061849; conditions: read-out: IC50 against GalNAc-T2; cited from earlier work
# [12] = calculated from IC50 by Cheng & Prusoff equation, MUC1a and UDP-GalNAc substrates
compound,measurement,setting,value
CC(=O)N[C@H]1[C@@H](O[C@H](C)[C@H](NC(=O)[C@H](C)NC(=O)[C@H](C)NC(=O)[C@H](C)NC(=O)[C@H](C)NC(=O)[C@@H]2CCCN2C(=O)[C@@H](NC(=O)[C@@H]2CCCN2C(=O)[C@H](CSCc2ccc3ccccc3n2)NC(=O)[C@@H]2CCCN2C(=O)[C@H](C)NC(=O)[C@H](C)NC(=O)CN)C(C)C)C(=O)N[C@@H](C)C(=O)N[C@@H](C)C(N)=O)O[C@H](CO)[C@H](O)[C@@H]1O [Compound 2] (H-GAAPC(X2)PVPAAAAT(αGalNAc)AA-NH2),IC50,[1],396 ± 172 µM
CC(=O)N[C@H]1[C@@H](O[C@H](C)[C@H](NC(=O)[C@H](C)NC(=O)[C@H](C)NC(=O)[C@H](C)NC(=O)[C@H](C)NC(=O)[C@@H]2CCCN2C(=O)[C@@H](NC(=O)[C@@H]2CCCN2C(=O)[C@H](CSCc2cccs2)NC(=O)[C@@H]2CCCN2C(=O)[C@H](C)NC(=O)[C@H](C)NC(=O)CN)C(C)C)C(=O)N[C@@H](C)C(=O)N[C@@H](C)C(N)=O)O[C@H](CO)[C@H](O)[C@@H]1O [Compound 3] (H-GAAPC(X1)PVPAAAAT(αGalNAc)AA-NH2),IC50,[1],84.5 ± 25.9 µM
"OCc1cccs1 [Compound 5, 2-thiophenemethanol]",Relative inhibitory activity against GalNAc-T2,[1]; MUC1a as acceptor substrate,unable to inhibit the enzyme
N[C@@H](CSCc1cccs1)C(=O)O [Compound 16],Relative inhibitory activity against GalNAc-T2,[1]; MUC1a as acceptor substrate,unable to inhibit the enzyme
CC(=O)N[C@H]1[C@@H](O[C@H](C)[C@H](NC(=O)[C@H](C)NC(=O)[C@H](C)NC(=O)[C@H](C)NC(=O)[C@H](C)NC(=O)[C@@H]2CCCN2C(=O)[C@H](Cc2c[nH]c3ccccc23)NC(=O)[C@@H]2CCCN2C(=O)[C@H](CSCc2cccs2)NC(=O)[C@@H]2CCCN2)C(=O)N[C@@H](C)C(=O)N[C@@H](C)C(N)=O)O[C@H](CO)[C@H](O)[C@@H]1O [Compound 18] (H-PC(X1)PWPAAAAT(αGalNAc)AA-NH2),IC50,"[1]; MUC1a as acceptor substrate, read-out: IC50 against GalNAc-T2",55.7 ± 31.5 µM
CC(=O)N[C@H]1[C@@H](O[C@H](C)[C@H](NC(=O)[C@H](C)NC(=O)[C@H](C)NC(=O)[C@@H](NC(=O)[C@H](CC(C)C)NC(=O)[C@@H]2CCCN2C(=O)[C@H](CC(C)C)NC(=O)[C@@H]2CCCN2C(=O)[C@H](CSCc2cccs2)NC(=O)[C@@H]2CCCN2)C(C)C)C(=O)N[C@@H](C)C(=O)N[C@@H](C)C(N)=O)O[C@H](CO)[C@H](O)[C@@H]1O [Compound 19] (H-PC(X1)PLPLVAAT(αGalNAc)AA-NH2),IC50,"[2]; MUC1a as acceptor substrate, read-out: IC50 against GalNAc-T1",678 ± 197 µM
same,Ki,[2]; [12],668 µM
same,IC50,"[3]; MUC1a as acceptor substrate, read-out: IC50 against GalNAc-T3",171 ± 62.2 µM
same,Ki,[3]; [12],154 µM
same,IC50,[1],21.4 ± 4.1 µM
O=C(Nc1ccc(Nc2ccncc2)cc1)c1ccc(Nc2ccnc3ccc([N+](=O)[O-])cc23)cc1 [T3Inh-1],Activity against T2 variant,[4],no activity
same,Activity against T6 variant,[5],no activity
same,Activity against GalNAc-T3,[6],can act against GalNAc-T3
same,FGF23 levels in mice,[7],lower the FGF23 levels
"CC(=O)N[C@H]1[C@@H](OP(=O)(O)OP(=O)(O)OC[C@H]2O[C@@H](n3ccc(=O)[nH]c3=O)[C@H](O)[C@@H]2O)O[C@H](CO)[C@H](O)[C@@H]1O [UDP-GalNAc, uridine diphosphate-GalNAc]",Km,[8]; read-out: Km(UDP-GalNAc) GalNAc-T2,0.01 mM
same,Km,[9]; read-out: Km(UDP-GalNAc) GalNAc-T3,29 µM
same,Km,[10]; read-out: Km(UDP-GalNAc) GalNAc-T1,62 µM
O=c1cc(-c2ccc(O)c(O)c2)oc2cc(O)cc(O)c12 [luteolin],IC50,[11],14.7 µM
MUC1a: model peptide acceptor substrate with sequence AHGVTSAPDTR,Km,[8]; read-out: Km(MUC1a) GalNAc-T2,2.13 mM
same,Km,[9]; read-out: Km(MUC1a) GalNAc-T3,90 µM
same,Km,[10]; read-out: Km(MUC1a) GalNAc-T1,660 µM
thiophene [Compound 15],Relative inhibitory activity against GalNAc-T2,[1]; MUC1a as acceptor substrate,unable to inhibit the enzyme
